In patent US20250296955A1, “PIN1 TARGETING COMPOUNDS AND DEGRADERS AND METHODS THEREOF” (The Regents of the University of California, priority 2024, published 2025):
Values belong to the molecule of their own block, whether it stands above or below them.

Key:
Pin1 [1] = molecular target: T1, Pin1 (Homo sapiens, UniProt Q13526); test: Denaturation thermal shift assay (SYPRO Orange); format: binding; parameters: human Pin1 (residues 1-163); made in house; host or cells: E. coli BL21 (DE3) gold pLysS; details: for share of first denaturation transition: percentage in brackets after first ΔTm; for share of second denaturation transition: percentage in brackets after second ΔTm
T1 sequence (Q13526 whole entry, the tested form may be a part): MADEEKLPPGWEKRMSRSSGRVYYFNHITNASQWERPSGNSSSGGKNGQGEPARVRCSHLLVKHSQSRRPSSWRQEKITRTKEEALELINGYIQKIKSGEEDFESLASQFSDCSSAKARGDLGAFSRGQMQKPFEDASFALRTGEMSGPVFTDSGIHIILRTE
Source text: (§1) Important to the success of structure activity relations studies, robust biochemical, biophysical, and cell-based assays were implemented that enabled rapid and iterative evaluations of test Pin1 targeting agents. First, the DELFIA (Dissociation-enhanced lanthanide fluorescent immunoassay) assay platform was used to derive a robust heterogeneous assay to monitor the ability of test agents to displace the binding between Pin1 and the D-Peptide (Table 1), which was obtained in a biotinylated form (FIG. 10). […] Second, for an orthogonal biophysical assay denaturation thermal shift measurements were used. Pin1 was incubated with vehicle control (buffer with 1% DMSO), or test agents at protein: ligand ratio of 1:2 (20 μM protein-40 μM compound) for 10 min at 10° C. in the presence of the fluorescent dye SYPRO Orange. The samples were gradually exposed to increasing temperature (linear gradient from 10° C. to 95° C.), causing the protein to unfold. This unfolding allowed the fluorescent dye to bind to the protein's exposed hydrophobic residues, resulting in an increase in fluorescence. The thermal shift assay measures the protein's melting temperature (Tm), which is the temperature at which the protein denatures by 50%. Ligands can affect a protein target to thermal denaturation, which could manifest in a positive or negative shift in the protein denaturation temperature (ΔTm) (Bai N, Roder H, Dickson A, & Karanicolas J (2019) Scientific Reports 9; and Kranz J K & Schalk-Hihi C (2011) Fragment-Based Drug Design: Tools, Practical Approaches, and Examples 493:277-298). Using these two assays, a series of commercially available Pin1 inhibitors were profiled (Table 1). The non-covalent agent D-peptide resulted only moderately active, with an IC50 value of ˜3 μM that closely resembled the dissociation constant for this agent determined via isothermal titration calorimetry, and the ˜ 3 μM IC50 value as reported by a fluorescence polarization assay (Pinch B J, et al. (2020) Nat Chem Biol 16(9):979-987). […] (Table 1) was observed.
Thermal shift assays for Pin1 alone and in the presence of the inhibitors were obtained with a BioRad CFX Connect Real-Time PCR Detection System. Each data point was collected in quadruplicate. Each sample was prepared using buffer 50 mM Phosphate pH 7.5, 150 mM NaCl, 1% DMSO. Protein: ligand ratio used was 1:2 (20 μM protein-40 μM compound), and SYPRO Orange was used. Incubation of the Pin1 protein with the compounds was performed at 10° C. for 10 min. Samples were then heated from 10 to 95° C. with heating increments of 0.05° C., over 30 min. Fluorescence intensity was measured within the excitation/emission ranges 470-505/540-700 nm.

Pin1 [2] = molecular target: T1, Pin1; test: DELFIA displacement assay (displacement of biotinylated D-peptide from 6His-Pin1); format: binding; parameters: human Pin1 (residues 1-163); made in house; host or cells: E. coli BL21 (DE3) gold pLysS
Source text: as §1
For the reported covalent agents such as sulfopin (Dubiella C, et al. (2021) Nat Chem Biol 17(9):954-963), BJP-07-017-3 (Pinch B J, et al. (2020) Nat Chem Biol 16(9):979-987), or KPT-6566 (Campaner E, et al. (2017) Nat Commun 8:15772), a 6-h pre-incubation period was included in the DELFIA assay to allow the covalent reaction to take place. For those agents, IC50 values that fell in the low nanomolar range were observed, consistent with what was reported previously for those compounds. […] To make those determinations in a broader panel of cancer cell lines three pancreatic cancer cell lines, BxPC3, MIA-PaCa-2, and PANC-1, the breast cancer cell line MDA-MB-231, the prostate cancer cell line PC3, and the non-small cell lung cancer cell line A549 were chosen. Each cell line represents various states of KRAS activating mutations (for example BxPC3 is wt-KRAS, while MIAPaCa2 carries the KRAS(G12C) mutation, and the PANC-1 the KRAS(G12D) (Miquel M, Zhang S, & Pilarsky C (2021) Front Cell Dev Biol 9:748631), A549 is KRAS(G12S) (Wang H, et al. (2019) EBioMedicine 49:106-117), MDA-MB-231 is KRAS(G13D) (Kim R K, et al. (2015) Exp Mol Med 47(1):e137), PC3 is wt-KRAS (Bouali S, et al. (2009) Oncol Rep 21(3):731-735). Pin1 protein levels in these cell lines were established using a specific Pin1 antibody in western blot analyses (FIG. 1A). The data confirmed that all these selected human cancer cell lines expressed a significant level of Pin1 (FIG. 1A).
Each well of 96-well streptavidin-coated plates (PerkinElmer) was incubated with 100 μL of 200 nM biotinylated D-peptide for 2 h and washed 3 times with a wash solution (PerkinElmer). Subsequently, a mixture containing Pin1, and a serial dilution of the test compounds were pre-incubated for 6 h. Eu-N1-labeled anti-6x-His antibody (PerkinElmer, 1:2000) was then added to this mixture and further incubated in the biotinylated D-peptide-bound plates for another 2 h. […]

Pin1 [3] = molecular target: T1, Pin1; test: Pin1 degradation in a panel of human cancer cell lines (western blot); format: cell-based; details: all cell lines, exposed to 5 μM, 24 h (FIG. 4); read-out: Dmax (the maximal level of degradation)
Protocol: In these studies, it was evident that both agents were very effective in degrading Pin1 in all tested human cancer cell lines with DC50 values (the concentration at which 50% degradation was observed)˜500 nM and Dmax (the maximal level of degradation) close to 100% with all cell lines when exposed to 5 μM of either agent (FIG. 4).
(§2) BxPC3, MIA PaCa-2, PANC-1, MDA-MB-231, and PC3 were obtained from the American Type Culture Collection (ATCC) and A549 NucLight Red cells were purchased from Essen Bioscience. BxPC3 and PC3 cells were cultured in RPMI (Corning) while PANC-1 cells were cultured in DMEM (Corning). MIA PaCa-2 cells were also cultured in DMEM, but with the addition of 2.5% horse serum. A549 NucLight cells were cultured in a Ham's F-12 nutriend mixture with GlutaMAX-1 (Gibco). All of the culture media were supplemented with 10% FBS. […]
(§3) At the end of the treatments, cells were lysed with a lysis buffer containing 20 mM Tris, pH 7.4, 120 mM NaCl, 1% Triton X-100, 0.5% sodium deoxycholate, 0.1% SDS, 1% IGEPAL, 5 mM EDTA, protease inhibitor cocktail and PhosSTOP (Sigma-Aldrich). […] Protein concentrations were determined using the Pierce BCA Protein Assay Kit (ThermoFisher Scientific) according to the manufacturer's instruction. […]

Pin1 [4] = molecular target: T1, Pin1; details: Pu W, et al. (2018); read-out: dissociation constant by isothermal titration calorimetric measurements; cited from earlier work
Pin1 [5] = molecular target: T1, Pin1; test: Pin1 degradation in BxPC3 cells (western blot); format: cell-based; details: Bx-PC3 cell line, 25 μM, 24 h (FIG. 1B)
Source text: Next, each cell line was exposed to a relatively high concentration of each of the Pin1 inhibitors from Table 1 and measured their ability to cause Pin1 degradation in the Bx-PC3 cell line under the experimental conditions reported in FIG. 1B. […] It was hypothesized that this observed degradation in the series correlated with the increased sensitivity of Pin1 to thermal degradation induced by BJP-07-017-3 in vitro (Table 1).
as §2, §3

[6] = Table 5, only one transition given
[7] = Table 4, two transitions observed, likely incomplete complex formation

share of first denaturation transition (Pin1 [1]; Table 4): 30% | share of second denaturation transition (Pin1 [1]; Table 4): 70% | ΔTm (° C.), first of two denaturation transitions (Pin1 [1]; [7]): +1.03 ± 0.13 °C | ΔTm (° C.), second printed of two denaturation transitions (Pin1 [1]; [7]): −19.18 ± 0.07 °C | IC50 (Pin1 [2]; Table 4, ± SD from duplicates): 44 ± 1 nM
Structure (SMILES): CC1(C)[C@H]2C[C@@H](C(=O)N[C@@H](Cc3c[nH]c4ccccc34)C(N)=O)N(C(=O)[C@@H]3Cc4c([nH]c5ccccc45)CN3C(=O)CCl)[C@H]21 [164A12]

Pin1 degradation in cell (Pin1 [5]): significant Pin1 degradation
Structure (SMILES): CC(C)(C)CN(C(=O)CCl)C1CCS(=O)(=O)C1 (stereo not drawn) [Sulfopin]

Second part, the molecule before the results:

Structure (SMILES): O=C(CCl)N[C@@H](Cc1c[nH]c2ccccc12)C(=O)N1CCCC[C@H]1C(=O)NCCc1c[nH]c2cc(Cl)cc(Cl)c12 [164A3]
ΔTm (° C.) (Pin1 [1]; [6]): −13.68 ± 0.20 °C | IC50 (Pin1 [2]; Table 5): 1180 ± 45 nM

Structure (SMILES): NC(=O)[C@H](Cc1c[nH]c2ccccc12)NC(=O)[C@@H]1C[C@H]2CCCC[C@@H]2N1C(=O)[C@@H]1Cc2c([nH]c3ccccc23)CN1C(=O)CCl [164A4]
ΔTm (° C.) (Pin1 [1]; Table 4, single transition, ± SE of four replicates): −20.46 ± 0.04 °C | IC50 (Pin1 [2]; Table 4, ± SD from duplicates): 35 ± 5 nM

Structure (SMILES): O=C(NCCc1c[nH]c2cc(Cl)cc(Cl)c12)[C@@H]1CCCCN1C(=O)[C@@H]1Cc2c([nH]c3ccccc23)CN1C(=O)CCl [164A5]
share of first denaturation transition (Pin1 [1]; Table 4): 70% | share of second denaturation transition (Pin1 [1]; Table 4): 30% | ΔTm (° C.), first of two denaturation transitions (Pin1 [1]; [7]): +0.66 ± 0.28 °C | ΔTm (° C.) (Pin1 [1]; [6]): +0.66 ± 0.28 °C | IC50 (Pin1 [2]; Table 4, ± SD from duplicates): 433 ± 65 nM

Structure (SMILES): NC(=O)[C@H](Cc1c[nH]c2ccc(F)cc12)NC(=O)[C@@H]1CCCCN1C(=O)[C@@H]1Cc2c([nH]c3ccccc23)CN1C(=O)CCl [164A10]
Dmax (Pin1 [3]): ~100% | ΔTm (Pin1 [1]; running text and figure legends): −8.95 °C

Structure (SMILES): Nc1nc(OCc2ccc(CNC(=O)C(F)(F)F)cc2)c2nc[nH]c2n1 [API-1]
Kd (Pin1 [4]): 2900 nM
